One data set concerns the target Substance-P receptor (Homo sapiens, UniProt P25103). Put plainly: Concentration required for displacement of [125I]-labeled substance P from cloned hNK1 receptor expressed in CHO cells. In kind it is cell-based.
For data set [1], the system named is Gerbillinae. Put plainly: Percent inhibition of gerbil foot-tapping at 1 mg/kg, iv after pre-treatment time of 2 hr. The data set is classed as functional.
Data set [2] relates to Gerbillinae. Put plainly: Percent inhibition of foot-tapping at 1 mg/kg, iv after pre-treatment time of 2 hr […]. The data set is classed as functional.
The species entered for data set [3] is Rattus norvegicus. Put plainly: Hepatic portal AUC was determined by pharmacokinetic study conducted in portal vein cannulated rats. In kind it is ADME, organism-based. The conditions noted are these: in vivo.
The species entered for data set [4] is Rattus norvegicus. Put plainly: Systemic AUC was determined by pharmacokinetic study conducted in portal vein cannulated rats. In kind it is ADME, organism-based. As to conditions: in vivo.
In data set [5] the test system is Gerbillinae. Put plainly: Percent inhibition of gerbil foot-tapping at 1 mg/kg, iv immediately following pre-treatment […]. The data set is classed as functional.
In data set [6] the test system is Gerbillinae. Put plainly: In vivo inhibitory dose determined in the gerbil foot-tapping assay after intravenous administration. The data set is classed as functional. As to conditions: read-out: ID50 (the source's name).
Data set [7] is described as follows: Plasma clearance rate determined in rats. In kind it is ADME, organism-based. The conditions noted are these: rat, read-out: Clearance rate.
Data set [8] in a line: Percent oral bioavailability determined in rats. In kind it is ADME, organism-based. The conditions noted are these: rat, in vivo, read-out: Bioavailabiility.

This note sets out measurements from ChEMBL document CHEMBL1134712, “2-Aryl indole NK1 receptor antagonists: optimisation of indole substitution” (Bioorg Med Chem Lett, 2001).

Chain of Substance-P receptor (P25103 whole entry): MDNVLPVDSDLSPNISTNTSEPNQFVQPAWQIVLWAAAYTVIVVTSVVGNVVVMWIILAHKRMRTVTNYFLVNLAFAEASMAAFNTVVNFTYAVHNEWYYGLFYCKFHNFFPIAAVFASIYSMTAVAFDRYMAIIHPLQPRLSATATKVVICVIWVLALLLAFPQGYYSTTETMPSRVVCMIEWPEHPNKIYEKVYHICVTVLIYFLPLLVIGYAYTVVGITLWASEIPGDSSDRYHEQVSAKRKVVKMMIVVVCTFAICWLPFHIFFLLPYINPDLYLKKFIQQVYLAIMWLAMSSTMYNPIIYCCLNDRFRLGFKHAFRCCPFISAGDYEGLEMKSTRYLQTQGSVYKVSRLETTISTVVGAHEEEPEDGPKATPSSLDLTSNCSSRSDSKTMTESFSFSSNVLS

Broadly, the IC50 is the point on the concentration scale where inhibition reaches its midpoint. A low value points to higher potency. Consider `Cn1c(-c2ccc(Cl)cc2)c(CCC(=O)N2CCC(O)(Cc3ccccc3)CC2)c2cc(N3CCCCC3)ccc21`, for which the IC50 at Substance-P receptor was 3.3 nM.

The compound `Cn1c(-c2ccc(Cl)cc2)c(CCC(=O)N2CCC(O)(Cc3ccccc3)CC2)c2cc(-c3ccccn3)ccc21` registered an IC50 on Substance-P receptor of 1.7 nM.

`Cn1c(-c2ccc(Cl)cc2)c(CCC(=O)N2CCC(O)(Cc3ccccc3)CC2)c2cc(-c3ccncc3)ccc21`: the IC50 at Substance-P receptor came out at 5.5 nM.

`Cn1c(-c2ccc(Cl)cc2)c(CCC(=O)N2CCC(O)(Cc3ccccc3)CC2)c2cnccc21` yielded a half-maximal inhibitory concentration (IC50) at Substance-P receptor of 41 nM.

In turn, `C=Cc1ccc2c(c1)c(CCC(=O)N1CCC(O)(Cc3ccccc3)CC1)c(-c1ccc(Cl)cc1)n2C` had an IC50 on Substance-P receptor of 0.27 nM.

For `COc1ccccc1N1CCN(C(=O)CCc2c(-c3ccc(Cl)cc3)[nH]c3ccc(OC(F)(F)F)cc23)CC1`, at Substance-P receptor, the IC50 was found to be 8.9 nM.

On Substance-P receptor, `COc1ccccc1N1CCN(C(=O)CCc2c(-c3ccc(Cl)cc3)[nH]c3cccc(Cl)c23)CC1` displayed a concentration for half-maximal inhibition (IC50) of 950 nM.

What is called inhibition in vivo is the percentage by which the read-out fell short of the control. At Substance-P receptor, `CC(=O)c1ccc2c(c1)c(CCC(=O)N1CCC(O)(Cc3ccccc3)CC1)c(-c1ccc(Cl)cc1)n2C` displayed an IC50 of 0.19 nM. The inhibition in vivo at 1 mg/kg in the data set with Gerbillinae [1] is 14%.

In turn, `Cn1c(-c2ccc(Cl)cc2)c(CCC(=O)N2CCC(O)(Cc3ccccc3)CC2)c2cc(N3CCOCC3)ccc21` came in with an IC50 at Substance-P receptor of 6.3 nM.

For `Cn1c(-c2ccc(Cl)cc2)c(CCC(=O)N2CCC(O)(Cc3ccccc3)CC2)c2cc(-n3cccc3)ccc21`, the IC50 at Substance-P receptor stood at 2.3 nM.

Take `O=C(CCc1c(-c2ccc(Cl)cc2)nc2ccc(Cl)cn12)N1CCC(O)(Cc2ccccc2)CC1`: the half-maximal inhibitory concentration (IC50) at Substance-P receptor came out at 0.78 nM.

Consider `COc1ccccc1N1CCN(C(=O)CCc2c(-c3ccc(Cl)cc3)[nH]c3ccccc23)CC1`, for which, at Substance-P receptor, the IC50 worked out at 31 nM.

In the case of `COc1ccccc1N1CCN(C(=O)CCc2c(-c3ccccc3)[nH]c3ccc(F)cc23)CC1`, the IC50 at Substance-P receptor turned out to be 87 nM.

The compound `Cn1c(-c2ccc(Cl)cc2)c(CCC(=O)N2CCC(O)(Cc3ccccc3)CC2)c2nc(Cl)ccc21` returned an IC50 on Substance-P receptor of 2.6 nM.

In turn, `COc1ccccc1N1CCN(C(=O)CCc2c(-c3ccc(Cl)cc3)[nH]c3cc(Cl)ccc23)CC1` returned an IC50 at Substance-P receptor of 4.9 nM.

The compound `COc1ccccc1N1CCN(C(=O)CCc2c(-c3ccc(Br)cc3)[nH]c3ccc(C)cc23)CC1` had an IC50 at Substance-P receptor of 1 nM.

As for `COc1ccccc1N1CCN(C(=O)CCc2c(-c3ccc(Cl)cc3)[nH]c3c(Cl)cc(Cl)cc23)CC1`, the IC50 on Substance-P receptor was found to be 14 nM.

On to `COc1ccccc1N1CCN(C(=O)CCc2c(-c3ccc(Cl)cc3)[nH]c3ccc(Cl)cc23)CC1`, for which the 50% inhibitory concentration (IC50) at Substance-P receptor was 0.89 nM.

Compound `Cn1c(-c2ccc(Cl)cc2)c(CCC(=O)N2CCC(O)(Cc3ccccc3)CC2)c2cc(-c3cccnc3)ccc21` showed an IC50 at Substance-P receptor of 5.5 nM.

By AUC is commonly meant concentration integrated over time. A lower AUC goes with less exposure. Consider `Cn1c(-c2ccc(Cl)cc2)c(CCC(=O)N2CCC(O)(Cc3ccccc3)CC2)c2cc(Cl)cnc21`, for which, on Substance-P receptor, the IC50 amounted to 0.15 nM. Also, the inhibition in vivo at 1 mg/kg with Gerbillinae [2] is 10%; in the data set on Gerbillinae [5] it was 100%. The AUC came out at 96.8 ng·h/mL in the data set listed under Rattus norvegicus [3] and 8 ng·h/mL in the data set listed under Rattus norvegicus [4].

`COc1ccccc1N1CCN(C(=O)CCc2c(-c3ccccc3)[nH]c3ccc(Cl)cc23)CC1`: the IC50 on Substance-P receptor is 5.6 nM.

With `Cn1c(-c2ccc(Cl)cc2)c(CCC(=O)N2CCC(O)(Cc3ccccc3)CC2)c2cc(Cl)ncc21`, the IC50 at Substance-P receptor was 0.22 nM.

Usually clearance stands for the volume of plasma or blood freed of the substance per unit of time. The compound `Cn1c(-c2ccc(Cl)cc2)c(CCC(=O)N2CCC(O)(Cc3ccccc3)CC2)c2cc(Cl)ccc21` gave an IC50 on Substance-P receptor of 0.16 nM. Also, in the data set with Gerbillinae [6], the ED50 worked out at 0.3 mg/kg. Besides, the AUC in the data set filed under Rattus norvegicus [3] was 24.7 ng·h/mL; in the data set filed under Rattus norvegicus [4], under 4 ng·h/mL. In addition, in data set [7], the clearance was found to be 31 mL/min/kg. Also, the bioavailability in data set [8] was 2.3%.

At Substance-P receptor, `COc1ccccc1N1CCN(C(=O)CCc2c(-c3ccc(Cl)cc3)[nH]c3cc(Cl)cc(Cl)c23)CC1` registered an IC50 of 570 nM.

Turning to `Cn1c(-c2ccc(Cl)cc2)c(CCC(=O)N2CCC(O)(Cc3ccccc3)CC2)c2cc(-c3ccco3)ccc21`, the IC50 at Substance-P receptor was 0.79 nM.

`COc1ccccc1N1CCN(C(=O)CCc2c(-c3ccc(Cl)cc3)[nH]c3ccc(C)cc23)CC1` returned an IC50 on Substance-P receptor of 0.6 nM.

In turn, `Cn1c(-c2ccc(Cl)cc2)c(CCC(=O)N2CCC(O)(Cc3ccccc3)CC2)c2cc(Br)ccc21` registered an IC50 on Substance-P receptor of 0.22 nM.
